In patent publication US20170343554A1, “METHODS OF MEASURING ERBB SIGNALING PATHWAY ACTIVITY TO DIAGNOSE AND TREAT CANCER PATIENTS” (Celcuity LLC, priority 2014, published 2017):
Like-named read-outs stand apart in the source and are kept apart here.

Tests used:
[1] = system: breast cancer patient cells; assay: CELx Pathway Shutdown single drug tests, impedance biosensor CReMS (Example 4); type: cell-based, human; conditions: one patient breast cancer cell sample expected to be a responder (FIG. 8B)
Protocol: The physiologic change of the cells and drugs tested was measured with an impedance biosensor CReMS and the summary output from the CReMS is recorded in FIG. 4.
In those experiments involving a combination of drugs, the procedures described in Example 3 were utilized. The list of patient cells and the drug tested with the cells is characterized in FIG. 4.

[2] = system: cells from two HER2 overexpressing breast cancer patients (Patient B1 and B4); assay: CELx Pathway Shutdown test, impedance biosensor CReMS, EGF perturbation (Example 1); type: cell-based, human
Excerpt: The change in impedance for a particular well is proportional to the number of cells and type of attachment the cells have with the impedance microplate. Changes in impedance indicate a response to perturbation of these small cell populations.
Prior to addition to the impedance microplate, the cells were removed from their growth container with versene, counted, and re-suspended in media without serum or other growth factors.

[3] = system: BT474 breast cancer cell line cells; assay: Cell attachment signal (CAS) diagnostic assay, impedance biosensor (Example 6); type: cell-based; conditions: lapatinib with NRG1, fulvestrant with estradiol
Protocol: (§1) The analyte of the diagnostic test used herein is the cell attachment signal (CAS) that viable patient cells generate, alone or in the presence of cell antagonists, when placed in the well of a microplate and analyzed with an impedance biosensor. For every test, the CAS is measured and analyzed for […] of patient cell samples. • 1) Patient cells only (C) • 2) Patient cells+pathway factor(s) (CF) • 3) Patient cells+pathway factor(s)+confirming agent (CCF)
(§2) To detect whether the signaling pathway is functioning normally, the signaling pathway in a patient's diseased cells are perturbed and the resulting activity is compared to the effect the perturbant has on the signaling pathway activity of their healthy cells or the effect of perturbant on the signaling pathway activity of healthy cells from a patient or patients known to be free of disease. The assay measures the change in CAS between the CF and C cells in a patient's healthy cells relative to the change in CAS between the CF and C cells in the diseased cells. Alternatively, the assay can measure the change in CAS between the CF and the C cells in a patient's diseased cells that can be compared to a known result from a patient or pool of patients known to be free of disease. Essentially, if the signaling pathways are abnormal, the CAS change between the healthy and diseased cells will be different. The measurement of change in CAS between CF and CCF diseased cells from a subject provides confirmation that the CF CAS represents activity of the signaling pathway of interest. In the case where CCF is not changed relative to CF, this would indicate that the signaling pathway activity in CF represents some other signaling pathway activity that is not related to the condition of interest. In these cases, the patient would not be considered to have the disease being analyzed.
(§3) Studies were performed confirming the ability of this cell analysis method to measure specific pathway activity in primary non-transformed malignant and healthy epithelial cells as well as cell lines. Representative data from these studies is shown in FIGS. 10 and 11 for two critical pathways involved in breast cancer, PI3K and ERα.

[4] = system: Patient 54 primary breast cancer cells; assay: as above; type: cell-based, human; conditions: Patient 54 primary tumor cells, lapatinib with NRG1, fulvestrant with estradiol
Protocol: as §1, §2, §3

[5] = system: cancer patients (Patients B1, B2, B4, C1, C2); conditions: cited from earlier work
[6] = system: HER2 signaling pathway activity in viable breast cancer cells of non-overexpressed HER2 patients; assay: CELx test of HER2 signaling pathway activity by CAS with perturbing and confirming agents (Example 7); type: cell-based, human; conditions: for % Attenuation of NRG1 Signal: non-overexpressing HER2, HER2-driven disease, clinically relevant single concentration; for attenuation of the NRG1 and EGF driven activity, comparison in words: five patients of Table 17, single concentration
Excerpt: Analyte and measurand: The analyte of the diagnostic test used herein is the cell attachment signal (CAS) that viable patient cells generate, alone or in the presence of specific cell signaling pathway perturbants, when placed in the well of an impedance biosensor microplate and continuously measured for electrical impedance. For every test, the CAS is continuously measured and used in the measurand algorithm for up to four portions of patient cell samples from the same patient. • 1. Patient cells only (C) • 2. Patient cells+perturbing pathway factor 1 (CF1) • 3. Patient cells+perturbing pathway factor 2 (CF2) (if necessary) • 4. Patient cells+perturbing pathway factor(s)+Confirming agent (CCF)
The CAS is quantified for each of the up to four portions of patient samples tested (C, CF1, CF2, CCF). To quantify the signaling pathway activity of a patient's diseased cells, the CAS measured in the CF1 and/or CF2 portions is compared to the CAS measured in the C portion. This enables determination of the change in CAS between the CF and C sample portions relative to the change in CAS between the CCF and CF sample portions to confirm how much of the change between CF and C is related to the signaling pathway of interest.
In using this confirming agent, the difference between the CAS of CF1 and/or CF2 and C can be correctly apportioned to HER2 participation. When this confirming agent is applied to cell samples before the perturbing agent, the perturbing agent is blocked from HER2-receptor-related activities thereby generating a CAS value for CCF below the CF1 and/CF2 CAS values by an amount proportional to the participation of the HER2 receptor in the CF1 and/or CF2 change relative to C.
Standard media based on DMEM/F12 without serum, with antibiotics (e.g. penicillin, streptomycin, amphotericin), and HEPES buffer were purchased and used as delivered from VWR (Radnor, Pa.) or Life Technologies (Grand Island, N.Y.).
The commercial-source cell lines were received on dry ice and cultured according to recommendation by the commercial provider. […] Prior to addition to the impedance microplate, the cells were removed from their growth container with trypsin/EDTA solution, counted, and re-suspended in media with antibiotics, without serum, or other growth factors.
The test procedure used (hereinafter referred to as CELx) comprised the following steps, all performed in 5% CO2, 85% humidity, at 37° C.: • 1. Cell Seeding: 180 uL aliquots containing 15,000 viable epithelial cells from each patient or cell line in mammary epithelial growth media with antibiotics, without serum, or other growth factors were distributed to each designated well (C, CCF, CF1, CF2) of an impedance microplate. Impedance was continuously measured throughout steps 2-4 described below. • 2. Confirming agent (20 uL) was added six hours after seeding to pre-specified CCF wells for each cell sample. […] Perturbing Factors were added (20 uL) 18 hours after seeding to pre-specified CF wells for each sample. Wells not receiving perturbing factor received media as control. • 4. Continuous impedance recordings were made for each test well for each patient typically for at least 15 hours after the perturbing agents were added.

[7] = system: cells from two breast cancer patients (Patients B1 and B2); assay: CELx Anti-Proliferative test, impedance biosensor CReMS (Example 2); type: cell-based, human; conditions: for responsiveness, CReM output (cell index) compared to control cells: continuous recording 48-72 hours
Protocol: A CELx Anti-Proliferative test was performed using cells from two breast cancer patients (Patients B1 and B2) and the drug Paclitaxel. The physiologic change of the B land B2 cells during the test was measured with an impedance biosensor CReMS and the output from the CReMS is recorded in FIGS. 2A and 2B. The comparison of the CELx test results and the third party clinical reference is recorded in FIG. 2C.
The CReMS, microplate, reagents, and buffers used in Example 1 are the same as those employed in Example 2, except for the therapeutic agent tested. In Example 2, the therapeutic agent, paclitaxel, was tested. Paclitaxel was purchased from Selleck Chemicals (TX, USA).
Breast Cancer cells from Patients B1 and B2 were utilized and handled in the same manner as described in Example 1.
Between 6,000-12,000 cells in each well were seeded onto the impedance microplate containing 120 uL settling media with serum. Forty microliters of the drug paclitaxel were added to one set each of the B1 and B2 cells; another control set of B1 and B2 cells received no drug. The CReMS recording of physiologic change was maintained continuously from when the cells were first seeded on the microplate through complete cellular response, which was between 48-72 hours. The test was performed at 37° C., 5% CO2 and at 75% relative humidity.

[8] = system: MAPK signaling pathway activity of cell sample C54; assay: CAS measurement after culture in fresh or non-fresh base media (Example 8); type: cell-based
Protocol: Many cell screening assays prescribe a simplified media-buffer that cells are placed in before and during the short time they are tested. The present invention with viable primary patient cells is performed with a base media used to maintain viable primary cell samples such that the cell population remains viable and retains its heterogeneity of individual cell types and a normal distribution of cells representing the different phases of the cell cycle during the complete test time of continuous measurement. […] A further aspect of the method includes replacing the base media with fresh base media within 72 hours of initiating contact with the perturbing or confirming agents.
The data highlights the importance of culturing the cells in fresh base media before a cell sample is contacted with a perturbing or confirming agent.

Compound: COc1cc2ncnc(Nc3ccc(F)c(Cl)c3)c2cc1OCCCN1CCOCC1 [Gefitinib]
- response in the CReMS testing [1]: did not show a response

Compound: CS(=O)(=O)CCNCc1ccc(-c2ccc3ncnc(Nc4ccc(OCc5cccc(F)c5)c(Cl)c4)c3c2)o1 [Lapatinib]
- CELx Pathway Shutdown test prediction of patient response ([2]; Patient B1): will respond
- CELx Pathway Shutdown test prediction of patient response ([2]; Patient B4): would respond
- effect of the confirming agent on the CAS generated by the pathway factor [3]: reduces
- effect of the confirming agent on the CAS generated by the pathway factor ([3]; listed as lapatinib): reduced
- effect of the confirming agent on the CAS generated by the pathway factor [4]: reduces
- effect of the confirming agent on the CAS generated by the pathway factor ([4]; listed as lapatinib): reduced
- responsiveness recorded by the third party clinical reference standard ([5]; Patient B1 (breast cancer)): responsive
- responsiveness recorded by the third party clinical reference standard ([5]; Patient B4 (breast cancer)): responsive

Compound: CCOc1cc2ncc(C#N)c(Nc3ccc(OCc4ccccn4)c(Cl)c3)c2cc1NC(=O)/C=C/CN(C)C [Neratinib]
- % Attenuation of NRG1 Signal ([6]; Patient R20): 104%
- % Attenuation of NRG1 Signal ([6]; Patient R39): 107%
- % Attenuation of NRG1 Signal ([6]; Patient R71): 100%
- % Attenuation of NRG1 Signal ([6]; Patient R82): 105%
- % Attenuation of NRG1 Signal ([6]; Patient R160): 118%
- attenuation of the NRG1 and EGF driven activity, comparison in words [6]: highest percentage attenuation

Compound: CC(=O)O[C@H]1C(=O)[C@@]2(C)[C@H]([C@H](OC(=O)c3ccccc3)[C@]3(O)C[C@H](OC(=O)[C@H](O)[C@@H](NC(=O)c4ccccc4)c4ccccc4)C(C)=C1C3(C)C)[C@]1(OC(C)=O)CO[C@@H]1C[C@@H]2O [Paclitaxel]
- CELx Anti-Proliferative test prediction of patient response ([7]; Patient B1): will respond
- responsiveness, CReM output (cell index) compared to control cells ([7]; Patient B1 cells): immediate and continuous responsiveness
- CELx Anti-Proliferative test prediction of patient response ([7]; Patient B2): will respond
- time after which the CReM output reverses (test cells begin proliferating, no longer responsive) ([7]; Patient B2 cells): roughly 24 hours
- responsiveness, CReM output (cell index) compared to control cells ([7]; Patient B2 cells): initial responsiveness
- responsiveness recorded by the third party clinical reference standard ([5]; Patient B1 (breast cancer)): responsive
- responsiveness recorded by the third party clinical reference standard ([5]; Patient B2 (breast cancer)): responsive

Compound: C[C@]12CC[C@@H]3c4ccc(O)cc4C[C@@H](CCCCCCCCC[S+]([O-])CCCC(F)(F)C(F)(F)F)[C@H]3[C@@H]1CC[C@@H]2O (stereo partly drawn) [fulvestrant]
- effect of the confirming agent on the CAS generated by the pathway factor [3]: reversed
- effect of the confirming agent on the CAS generated by the pathway factor ([3]; listed as Fulvestrant): reduced
- effect of the confirming agent on the CAS generated by the pathway factor [4]: reversed
- effect of the confirming agent on the CAS generated by the pathway factor ([4]; listed as Fulvestrant): reduced

Compound: EGF: human epidermal growth factor, perturbing agent of HER1-HER2 receptor pairings
- % HER2 Participation, ((CF-C) − (CCF-C))/(CF-C))*100 ([6]; Patient R112): 25%
- Measurand (HER2 signal), ~(CF-C) − (CCF-C) ([6]; Patient R112): 103
- Total Ligand Signal (CF-C) ([6]; Patient R112): 398
- CAS (CCF), confirming factor + perturbing factor addition sample ([6]; Patient R112, HER2 participation confirming factor added before the perturbing ligand): 337
- signaling pathway activity (CAS) on perturbation ([8]; cell sample C54 cultured in fresh base media prior to contact): significant MAPK signaling pathway activity
- signaling pathway activity (CAS) on perturbation ([8]; cell sample C54 cultured in non-fresh base media prior to perturbation): no signaling pathway activity

Compound: Pertuzumab
- % Attenuation of NRG1 Signal ([6]; Patient R71): 68%
- % Attenuation of NRG1 Signal ([6]; Patient R160): 95%
- attenuation of the NRG1 and EGF driven activity, comparison in words [6]: significant attenuation
- amount of pertuzumab inhibition of NRG1 driven activity, compared with SKBR3 ([6]; non-overexpressed HER2 patient sample R39 versus overexpressed HER2 cell line SKBR3): greater
